Source: PubChem BioAssay (NCI)
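Cultured in 96-well plates, cells were exposed to test compound for 48 hours across five concentrations. GI50 = concentration required for 50% inhibition of growth. TGI: total growth inhibition.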

Tests used:
Test in all cases: NCI tumour cell line growth inhibition, 48 h
786-0 renal = test system: 786-0 renal
A498 renal = test system: A498 renal
A549 NSCLC = test system: A549 NSCLC
ACHN renal = test system: ACHN renal
BT-549 breast = test system: BT-549 breast
CAKI-1 renal = test system: CAKI-1 renal
CCRF-CEM leukemia = test system: CCRF-CEM leukemia
COLO 205 colon = test system: COLO 205 colon
DU-145 prostate = test system: DU-145 prostate
EKVX NSCLC = test system: EKVX NSCLC
HCC-2998 colon = test system: HCC-2998 colon
HCT-116 colon = test system: HCT-116 colon
HCT-15 colon = test system: HCT-15 colon
HL-60(TB) leukemia = test system: HL-60(TB) leukemia
HOP-62 NSCLC = test system: HOP-62 NSCLC
HOP-92 NSCLC = test system: HOP-92 NSCLC
HS 578T breast = test system: HS 578T breast
HT29 colon = test system: HT29 colon
IGROV1 ovarian = test system: IGROV1 ovarian
K-562 leukemia = test system: K-562 leukemia
KM12 colon = test system: KM12 colon
LOX IMVI melanoma = test system: LOX IMVI melanoma
M14 melanoma = test system: M14 melanoma
MALME-3M melanoma = test system: MALME-3M melanoma
MCF7 breast = test system: MCF7 breast
MDA-MB-231 breast = test system: MDA-MB-231 breast
MDA-MB-435 = test system: MDA-MB-435
MOLT-4 leukemia = test system: MOLT-4 leukemia
NCI-H226 lung = test system: NCI-H226 lung
NCI-H23 lung = test system: NCI-H23 lung
NCI-H460 lung = test system: NCI-H460 lung
NCI-H522 lung = test system: NCI-H522 lung
NCI/ADR-RES ovarian = test system: NCI/ADR-RES ovarian
OVCAR-4 ovarian = test system: OVCAR-4 ovarian
OVCAR-5 ovarian = test system: OVCAR-5 ovarian
OVCAR-8 ovarian = test system: OVCAR-8 ovarian
PC-3 prostate = test system: PC-3 prostate
RPMI-8226 leukemia = test system: RPMI-8226 leukemia
RXF 393 renal = test system: RXF 393 renal
SF-268 CNS = test system: SF-268 CNS
SF-295 CNS = test system: SF-295 CNS
SF-539 CNS = test system: SF-539 CNS
SK-MEL-2 melanoma = test system: SK-MEL-2 melanoma
SK-MEL-28 melanoma = test system: SK-MEL-28 melanoma
SK-MEL-5 melanoma = test system: SK-MEL-5 melanoma
SK-OV-3 ovarian = test system: SK-OV-3 ovarian
SN12C renal = test system: SN12C renal
SNB-19 CNS = test system: SNB-19 CNS
SNB-75 CNS = test system: SNB-75 CNS
SR leukemia = test system: SR leukemia
SW-620 colon = test system: SW-620 colon
T-47D breast = test system: T-47D breast
TK-10 renal = test system: TK-10 renal
U251 CNS = test system: U251 CNS
UACC-257 melanoma = test system: UACC-257 melanoma
UACC-62 melanoma = test system: UACC-62 melanoma
UO-31 renal = test system: UO-31 renal

CC[C@]12CC(C(=O)OC)=C3Nc4ccccc4[C@@]34CCN(C14)[C@@H]1c3cc4c(cc3O[C@@H]1[C@H]2O)NC1=C(C(=O)OC)C[C@@]2(CC)C3N(CC[C@@]143)C[C@H]1O[C@H]12 (some centres not stated)
GI50 (786-0 renal): 0.274 µM | TGI (786-0 renal): > 50 µM | GI50 (A498 renal): 0.193 µM | TGI (A498 renal): 1.16 µM | GI50 (A549 NSCLC): 0.51 µM | TGI (A549 NSCLC): > 44.4 µM | GI50 (ACHN renal): 0.32 µM | TGI (ACHN renal): 5.65 µM | GI50 (BT-549 breast): 0.889 µM | TGI (BT-549 breast): 8.26 µM | GI50 (CAKI-1 renal): 0.122 µM | TGI (CAKI-1 renal): > 20.4 µM | GI50 (CCRF-CEM leukemia): 0.59 µM | TGI (CCRF-CEM leukemia): > 50 µM | GI50 (COLO 205 colon): 0.278 µM | TGI (COLO 205 colon): 1.01 µM | GI50 (DU-145 prostate): 1.85 µM | TGI (DU-145 prostate): > 50 µM | GI50 (EKVX NSCLC): 0.6 µM | TGI (EKVX NSCLC): > 50 µM | GI50 (HCC-2998 colon): 0.492 µM | TGI (HCC-2998 colon): 1.7 µM | GI50 (HCT-116 colon): 0.367 µM | TGI (HCT-116 colon): 2.84 µM | GI50 (HCT-15 colon): 0.16 µM | TGI (HCT-15 colon): 6.4 µM | GI50 (HL-60(TB) leukemia): 0.0862 µM | TGI (HL-60(TB) leukemia): > 50 µM | GI50 (HOP-62 NSCLC): 0.201 µM | TGI (HOP-62 NSCLC): > 50 µM | GI50 (HOP-92 NSCLC): 0.134 µM | TGI (HOP-92 NSCLC): 2.07 µM | GI50 (HS 578T breast): 0.337 µM | TGI (HS 578T breast): > 50 µM | GI50 (HT29 colon): 0.226 µM | TGI (HT29 colon): > 25.4 µM | GI50 (IGROV1 ovarian): 0.349 µM | TGI (IGROV1 ovarian): > 50 µM | GI50 (K-562 leukemia): 0.22 µM | TGI (K-562 leukemia): > 50 µM | GI50 (KM12 colon): 0.636 µM | TGI (KM12 colon): > 50 µM | GI50 (LOX IMVI melanoma): 0.167 µM | TGI (LOX IMVI melanoma): 0.721 µM | GI50 (M14 melanoma): 0.423 µM | TGI (M14 melanoma): > 20.6 µM | GI50 (MALME-3M melanoma): 0.504 µM | TGI (MALME-3M melanoma): 21 µM | GI50 (MCF7 breast): 0.109 µM | TGI (MCF7 breast): > 50 µM | GI50 (MDA-MB-231 breast): 0.311 µM | TGI (MDA-MB-231 breast): > 50 µM | GI50 (MDA-MB-435): 0.37 µM | TGI (MDA-MB-435): 8.77 µM | GI50 (MOLT-4 leukemia): 0.912 µM | TGI (MOLT-4 leukemia): > 50 µM | GI50 (NCI-H226 lung): 0.509 µM | TGI (NCI-H226 lung): > 11.3 µM | GI50 (NCI-H23 lung): 0.632 µM | TGI (NCI-H23 lung): > 36.2 µM | GI50 (NCI-H460 lung): 0.812 µM | TGI (NCI-H460 lung): > 30.7 µM | GI50 (NCI-H522 lung): 0.224 µM | TGI (NCI-H522 lung): 2.93 µM | GI50 (NCI/ADR-RES ovarian): 0.29 µM | TGI (NCI/ADR-RES ovarian): > 50 µM | GI50 (OVCAR-4 ovarian): 0.548 µM | TGI (OVCAR-4 ovarian): > 50 µM | GI50 (OVCAR-5 ovarian): 0.614 µM | TGI (OVCAR-5 ovarian): > 50 µM | GI50 (OVCAR-8 ovarian): 0.48 µM | TGI (OVCAR-8 ovarian): > 50 µM | GI50 (PC-3 prostate): 0.403 µM | TGI (PC-3 prostate): > 50 µM | GI50 (RPMI-8226 leukemia): 0.185 µM | TGI (RPMI-8226 leukemia): 1.44 µM | GI50 (RXF 393 renal): 0.483 µM | TGI (RXF 393 renal): 1.9 µM | GI50 (SF-268 CNS): 1.27 µM | TGI (SF-268 CNS): > 50 µM | GI50 (SF-295 CNS): 0.317 µM | TGI (SF-295 CNS): > 50 µM | GI50 (SF-539 CNS): 0.417 µM | TGI (SF-539 CNS): > 50 µM | GI50 (SK-MEL-2 melanoma): 0.537 µM | TGI (SK-MEL-2 melanoma): 5.04 µM | GI50 (SK-MEL-28 melanoma): 0.974 µM | TGI (SK-MEL-28 melanoma): > 50 µM | GI50 (SK-MEL-5 melanoma): 0.583 µM | TGI (SK-MEL-5 melanoma): 1.32 µM | GI50 (SK-OV-3 ovarian): 0.296 µM | GI50 (SN12C renal): 0.641 µM | TGI (SN12C renal): > 50 µM | GI50 (SNB-19 CNS): 0.443 µM | TGI (SNB-19 CNS): > 50 µM | GI50 (SNB-75 CNS): 0.0972 µM | GI50 (SR leukemia): 0.183 µM | TGI (SR leukemia): > 50 µM | GI50 (SW-620 colon): 0.84 µM | TGI (SW-620 colon): > 20.7 µM | GI50 (T-47D breast): 0.616 µM | TGI (T-47D breast): > 50 µM | GI50 (TK-10 renal): 0.13 µM | TGI (TK-10 renal): 3.06 µM | GI50 (U251 CNS): 0.738 µM | TGI (U251 CNS): 4.72 µM | GI50 (UACC-257 melanoma): 0.363 µM | TGI (UACC-257 melanoma): 10.2 µM | GI50 (UACC-62 melanoma): 0.0895 µM | TGI (UACC-62 melanoma): 1.18 µM | GI50 (UO-31 renal): 0.148 µM | TGI (UO-31 renal): > 50 µM
